The text below walks through data of US11306078B2, “Piperidine CXCR7 receptor modulators” (IDORSIA PHARMACEUTICALS LTD., priority 2016, dated 2022).

This experiment addresses human chemokine receptor CXCR7 (Homo sapiens (Human), UniProt P25106). The experiment is described as follows: Tango CXCR7-bla U2OS beta-arrestin recruitment assay (beta-lactamase reporter, FRET), antagonism of CXCL12/SDF1-α.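 Note: compounds preincubated 15 min before CXCL12 addition, then 22 h at 37 °C, FRET emission ratio read with CCF4-AM substrate after 2 h.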 In kind it is cell-based. The note with it: antagonistic effect on CXCR7; Tango CXCR7-bla U2OS cells, CXCL12/SDF1-α at its EC80.

One may read the IC50 as the concentration that inhibits the measured activity by half. Low readings indicate higher potency, high ones lower potency.

The structures appear in SMILES notation.

Chain of human chemokine receptor CXCR7 (P25106 whole entry): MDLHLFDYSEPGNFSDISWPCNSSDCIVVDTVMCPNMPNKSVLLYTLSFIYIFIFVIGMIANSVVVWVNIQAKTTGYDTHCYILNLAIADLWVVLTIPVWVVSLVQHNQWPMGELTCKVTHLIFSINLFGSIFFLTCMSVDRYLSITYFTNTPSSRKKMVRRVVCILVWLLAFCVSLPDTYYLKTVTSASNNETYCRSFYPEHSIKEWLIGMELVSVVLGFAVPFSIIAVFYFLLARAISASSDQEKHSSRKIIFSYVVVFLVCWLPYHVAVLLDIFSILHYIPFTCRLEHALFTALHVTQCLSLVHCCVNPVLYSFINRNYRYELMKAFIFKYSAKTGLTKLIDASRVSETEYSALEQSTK

`O=C(N[C@@H]1CCN(CC2CC2)C[C@H]1C(=O)NC1(c2ncccn2)CC1)c1cc(-c2ccc(F)cn2)on1` (racemic) [Example 1.196, rac-(3R*,4R*)-1-Cyclopropylmethyl-4-{[5-(5-fluoro-pyridin-2-yl)-isoxazole-3-carbonyl]-amino}-piperidine-3-carboxylic acid (1-pyrimidin-2-yl-cyclopropyl)-amide] came in with a half-maximal inhibitory concentration (IC50) of 575 nM.
The compound `O=C(N[C@@H]1CCN(CC2CC2)C[C@H]1C(=O)NC1(c2ccccn2)CCC1)c1cc(-c2ccc(F)cc2F)on1` (racemic) [Example 1.197, rac-(3R*,4R*)-1-Cyclopropylmethyl-4-{[5-(2,4-difluoro-phenyl)-isoxazole-3-carbonyl]-amino}-piperidine-3-carboxylic acid (1-pyridin-2-yl-cyclobutyl)-amide] yielded an IC50 of 11 nM.
In the case of `COc1ccccc1C1(NC(=O)[C@@H]2CN(CC3CC3)CC[C@H]2NC(=O)c2cc(-c3ccc(F)cc3F)on2)CC1` (racemic) [Example 1.198, rac-(3R*,4R*)-1-Cyclopropylmethyl-4-{[5-(2,4-difluoro-phenyl)-isoxazole-3-carbonyl]-amino}-piperidine-3-carboxylic acid [1-(2-methoxy-phenyl)-cyclopropyl]-amide], half-maximal inhibition (IC50) required 52 nM.
As to `O=C(N[C@@H]1CCN(CC2CC2)C[C@H]1C(=O)NC1(c2ncccn2)CC1)c1cc(-c2cccc(F)c2F)on1` (racemic) [Example 1.199, rac-(3R*,4R*)-1-Cyclopropylmethyl-4-{[5-(2,3-difluoro-phenyl)-isoxazole-3-carbonyl]-amino}-piperidine-3-carboxylic acid (1-pyrimidin-2-yl-cyclopropyl)-amide], the half-maximal inhibitory concentration (IC50) was found to be 273 nM.
As for `CC(C)N1CC[C@@H](NC(=O)c2cc(-c3ccc(F)cc3F)on2)[C@H](C(=O)N(C)C)C1` (racemic) [Example 2.001, rac-(3R*,4R*)-4-{[5-(2,4-Difluoro-phenyl)-isoxazole-3-carbonyl]-amino}-1-isopropyl-piperidine-3-carboxylic Acid Dimethylamide], the IC50 is 209 nM.
Next, `CN(C)C(=O)[C@@H]1CN(C2CCCCC2)CC[C@H]1NC(=O)c1cc(-c2c(F)cccc2F)on1` (racemic) [Example 3.001, rac-(3R*,4R*)-1-Cyclohexyl-4-{[5-(2,6-difluoro-phenyl)-isoxazole-3-carbonyl]-amino}-piperidine-3-carboxylic acid dimethylamide]: 965 nM; `CN(C)C(=O)[C@@H]1CN(C2CCCCC2)CC[C@H]1NC(=O)c1cc(-c2ccc(F)cc2)on1` (racemic) [Example 3.002, rac-(3R*,4R*)-1-Cyclohexyl-4-{[5-(4-fluoro-phenyl)-isoxazole-3-carbonyl]-amino}-piperidine-3-carboxylic acid dimethylamide]: 435 nM.
As to `CN(C)C(=O)[C@@H]1CN(C2CCCCC2)CC[C@H]1NC(=O)c1nnc(-c2ccc(F)cc2F)o1` (racemic) [Example 3.003, rac-(3R*,4R*)-1-Cyclohexyl-4-{[5-(2,4-difluoro-phenyl)-[1,3,4]oxadiazole-2-carbonyl]-amino}-piperidine-3-carboxylic acid dimethylamide], half-maximal inhibition (IC50) was put at 105 nM.
`CN(C)C(=O)[C@@H]1CN(C2CCCCC2)CC[C@H]1NC(=O)c1cc(-c2ccc(F)cc2Cl)on1` (racemic) [Example 3.004, rac-(3R*,4R*)-4-{[5-(2-Chloro-4-fluoro-phenyl)-isoxazole-3-carbonyl]-amino}-1-cyclohexyl-piperidine-3-carboxylic acid dimethylamide] displayed an IC50 of 338 nM.
Regarding `CN(C)C(=O)[C@@H]1CN(C2CCCCC2)CC[C@H]1NC(=O)c1cc(-c2c(F)cc(F)cc2F)on1` (racemic) [Example 3.005, rac-(3R*,4R*)-1-Cyclohexyl-4-{[5-(2,4,6-trifluoro-phenyl)-isoxazole-3-carbonyl]-amino}-piperidine-3-carboxylic acid dimethylamide], the IC50 worked out at 38 nM.
`CN(C)C(=O)[C@@H]1CN(C2CCCCC2)CC[C@H]1NC(=O)c1cc(-c2ccc(Cl)cc2F)on1` (racemic) [Example 3.006, rac-(3R*,4R*)-4-{[5-(4-Chloro-2-fluoro-phenyl)-isoxazole-3-carbonyl]-amino}-1-cyclohexyl-piperidine-3-carboxylic acid dimethylamide] gave an IC50 of 108 nM.
`CN(C)C(=O)[C@@H]1CN(C2CCCCC2)CC[C@H]1NC(=O)c1noc(-c2ccc(F)cc2F)n1` (racemic) [Example 3.007, rac-(3R*,4R*)-1-Cyclohexyl-4-{[5-(2-difluoro-phenyl)-[1,2,4]oxadiazole-3-carbonyl]-amino}-piperidine-3-carboxylic acid dimethylamide]: the IC50 stood at 162 nM.
Take `O=C(N[C@@H]1CCN(C2CCCCC2)C[C@H]1C(=O)NC1(c2ccccn2)CC1)c1cc(-c2ccccc2F)on1` (racemic) [Example 3.009, rac-(3R*,4R*)-1-Cyclohexyl-4-{[5-(2-fluoro-phenyl)-isoxazole-3-carbonyl]amino}-piperidine-3-carboxylic acid (1-pyridin-2-yl-cyclopropyl)-amide]: the half-maximal inhibitory concentration (IC50) was found to be 286 nM.
The compound `O=C(N[C@@H]1CCN(C2CCCCC2)C[C@H]1C(=O)NC1(c2ccccn2)CC1)c1nnc(-c2ccc(F)cc2F)o1` (racemic) [Example 3.012, rac-(3R*,4R*)-1-Cyclohexyl-4-{[5-(2,4-difluoro-phenyl)-[1,3,4]oxadiazole-2-carbonyl]-amino}-piperidine-3-carboxylic acid (1-pyridin-2-yl-cyclopropyl)-amide] returned an IC50 of 26 nM.
With `O=C(N[C@@H]1CCN(CC2CC2)C[C@H]1C(=O)NC1(c2ccccn2)CC1)c1cc(-c2ccccc2F)on1` (racemic) [Example 3.013, rac-(3R*,4R*)-1-Cyclopropylmethyl-4-{[5-(2-fluoro-phenyl)-isoxazole-3-carbonyl]-amino}-piperidine-3-carboxylic acid (1-pyridin-2-yl-cyclopropyl)-amide], the half-inhibitory concentration (IC50) worked out at 153 nM.
The value for `O=C(N[C@@H]1CCN(CC2CC2)C[C@H]1C(=O)NC1(c2ccccn2)CC1)c1cc(-c2ccc(F)cc2)on1` (racemic) [Example 3.014, rac-(3R*,4R*)-1-Cyclopropylmethyl-4-{[5-(4-fluoro-phenyl)-isoxazole-3-carbonyl]-amino}-piperidine-3-carboxylic acid (1-pyridin-2-yl-cyclopropyl)-amide] was 158 nM; that for `O=C(N[C@@H]1CCN(CC2CC2)C[C@H]1C(=O)NC1(c2ccccn2)CC1)c1ncc(-c2ccc(F)cc2F)o1` (racemic) [Example 3.015, rac-(3R*,4R*)-1-Cyclopropylmethyl-4-{[5-(2,4-difluoro-phenyl)-oxazole-2-carbonyl]-amino}-piperidine-3-carboxylic acid (1-pyridin-2-yl-cyclopropyl)-amide] was 170 nM.
`O=C(N[C@@H]1CCN(CC2CC2)C[C@H]1C(=O)NC1(c2ccccn2)CC1)c1nnc(-c2ccc(F)cc2F)o1` (racemic) [Example 3.016, rac-(3R*,4R*)-1-Cyclopropylmethyl-4-{[5-(2,4-difluoro-phenyl)-[1,3,4]oxadiazole-2-carbonyl]-amino}-piperidine-3-carboxylic acid (1-pyridin-2-yl-cyclopropyl)-amide] showed a half-maximal inhibitory concentration (IC50) of 105 nM.
Next, `CN(C)C(=O)[C@@H]1CN(C2CCCC2)CC[C@H]1NC(=O)c1ncc(-c2ccc(F)cc2F)o1` (racemic) [Example 3.017, rac-(3R*,4R*)-1-Cyclopentyl-4-{[5-(2,4-difluoro-phenyl)-oxazole-2-carbonyl]-amino}-piperidine-3-carboxylic acid dimethylamide]: 661 nM; `CN(C)C(=O)[C@@H]1CN(C2CCCCC2)CC[C@H]1NC(=O)c1ncc(-c2ccc(F)cc2F)o1` (racemic) [Example 3.018, rac-(3R*,4R*)-1-Cyclohexyl-4-{[5-(2,4-difluoro-phenyl)-oxazole-2-carbonyl]-amino}-piperidine-3-carboxylic acid dimethylamide]: 198 nM.
Turning to `CN(C)C(=O)[C@@H]1CN(C2CCCCC2)CC[C@H]1NC(=O)c1nc(-c2ccc(F)cc2F)no1` (racemic) [Example 3.019, rac-(3R*,4R*)-1-Cyclohexyl-4-{[3-(2,4-difluoro-phenyl)-[1,2,4]oxadiazole-5-carbonyl]-amino}-piperidine-3-carboxylic acid dimethylamide], the IC50 came to 778 nM.
Next, `O=C(N[C@@H]1CCN(CC2CC2)C[C@H]1C(=O)NC1(c2ncccn2)CC1)c1noc(-c2ccc(F)cc2)c1F` (racemic) [Example 3.021, rac-(3R*,4R*)-1-Cyclopropylmethyl-4-{[4-fluoro-5-(4-fluoro-phenyl)-isoxazole-3-carbonyl]-amino}-piperidine-3-carboxylic acid (1-pyrimidin-2-yl-cyclopropyl)-amide]: 40 nM.
In turn, `O=C(N[C@@H]1CCN(CC2CC2)C[C@H]1C(=O)NC1(c2ncccn2)CC1)c1noc(-c2ccc(F)cc2F)c1F` (racemic) [Example 3.022, rac-(3R*,4R*)-1-Cyclopropylmethyl-4-{[5-(2,4-difluoro-phenyl)-4-fluoro-isoxazole-3-carbonyl]-amino}-piperidine-3-carboxylic acid (1-pyrimidin-2-yl-cyclopropyl)-amide] returned an IC50 of 28 nM.
As to `CN(C)C(=O)[C@]1(C)CN(C2CCCCC2)CC[C@H]1NC(=O)c1cc(-c2ccc(F)cc2F)on1` (racemic) [Example 5.002, rac-(3R*,4R*)-1-Cyclohexyl-4-{[5-(2,4-difluoro-phenyl)-isoxazole-3-carbonyl]-amino}-3-methyl-piperidine-3-carboxylic Acid Dimethylamide], the 50% inhibitory concentration (IC50) was 857 nM.
As for `O=C(N[C@@H]1CCN(C2CCCCC2)C[C@H]1C(=O)N1CCC(O)C1)c1cc(-c2ccc(F)cc2F)on1` (relative stereo) [Example 1.028, 5-(2,4-Difluoro-phenyl)-isoxazole-3-carboxylic acid [(3R*,4R*)-1-cyclohexyl-3-((3RS)-3-hydroxy-pyrrolidine-1-carbonyl)-piperidin-4-yl]-amide], half-maximal inhibition (IC50) was put at 916 nM.
